The results in this text go back to US20240174629A1 (OTCPHARM JSC, priority 2021, published 2024).

Converted amounts (≈) assume the structure as drawn.

Series [1] is described as follows: Cytotoxicity, microtetrazolium test (MTT). Particulars: dog, MDCK cells, CC50 (MDCK), mean ±SD.

For `COC(=O)c1c(N(Cc2ccccc2C(F)(F)F)C(C)=O)sc2cc(O)ccc12`, the melting point lay in the range of 165 to 169 °C.
For `COC(=O)c1c(N(Cc2ccc(C)cc2)C(C)=O)sc2cc(O)ccc12`, the melting point lay in the range of 160 to 164 °C.
Still for that read-out and setting: with `CCOC(=O)c1c(N(Cc2ccc(C)cc2)C(C)=O)sc2cc(O)ccc12` the figure was 145 to 147 °C; with `CC(=O)N(Cc1ccccc1F)c1sc2cc(O)ccc2c1C(=O)O`, 140 to 145 °C.
Same read-out and setting: as for `CC(=O)N(Cc1ccccc1)c1sc2c(Cl)c(O)ccc2c1C#N`, the figure is 176 to 178 °C.
As to `COC(=O)c1c(N(Cc2ccc3ccccc3c2)C(C)=O)sc2c(Cl)c(O)ccc12` [Example 33, Methyl 2-[acetyl(2-naphthylmethyl)amino]-7-chloro-6-hydroxy-1-benzothiophene-3-carboxylate], the melting point fell in the range of 185 to 190 °C. In series [1], this compound registered a CC50 at 48 h of 3.7 ± 0.4 µg/mL (≈ 8.41 µM).
For `CNC(=O)c1c(N(Cc2ccccc2F)C(C)=O)sc2c(Cl)c(O)ccc12` [Example 75, 2-[acetyl(2-fluorobenzyl)amino]-7-chloro-6-hydroxy-N-methyl-1-benzothiophene-3-carboxamide] the same measures were 108 to 112 °C and 28 ± 4 µg/mL (≈ 68.8 µM).
The corresponding values for `CCCNC(=O)c1c(N(Cc2ccccc2)C(C)=O)sc2cc(O)ccc12` [Example 80, 2-[acetyl(benzyl)amino]-6-hydroxy-N-propyl-1-benzothiophene-3-carboxamide] are 85 to 90 °C and 240 ± 16 µg/mL (≈ 627 µM).
`COC(=O)c1c(N(Cc2cccc3ccccc23)C(C)=O)sc2c(Cl)c(O)ccc12`: the melting point lay in the range of 210 to 212 °C.
With `CNC(=O)c1c(N(Cc2ccc(F)cc2F)C(C)=O)sc2c(Cl)c(O)ccc12` [Example 78, 2-[acetyl(2,4-difluorobenzyl)amino]-7-chloro-6-hydroxy-N-methyl-1-benzothiophene-3-carboxamide], the melting point fell in the range of 125 to 130 °C. In series [1], this compound returned a CC50 at 48 h of 68 ± 5 µg/mL (≈ 160 µM).
For `COC(=O)c1c(N(Cc2ccccc2C(F)(F)F)C(C)=O)sc2c(CN(C)C)c(O)ccc12` [Example 59] the same measures were 184 to 188 °C and > 300 µg/mL.
Compound `COC(=O)c1c(N(CCc2ccccc2)C(C)=O)sc2c(Cl)c(O)ccc12` had a melting point of 150 to 155 °C.
`CC(=O)N(Cc1ccccc1)c1sc2c(Cl)c(O)ccc2c1C(=O)O` [Example 66, 2-[acetyl(benzyl)amino]-7-chloro-6-hydroxy-1-benzothiophene-3-carboxylic acid] returned a melting point of 240 to 245 °C. In addition, the CC50 at 48 h in series [1] is > 300 µg/mL.
For `CCOC(=O)c1c(N(Cc2ccc(C)cc2)C(C)=O)sc2c(Cl)c(O)ccc12`, the melting point lay in the range of 170 to 172 °C.
With `COC(=O)c1c(N(Cc2ccccc2Cl)C(C)=O)sc2c(Cl)c(O)ccc12`, the melting point lay within 229 to 233 °C.
In turn, `COC(=O)c1c(N(C(C)=O)C(C)c2ccccc2)sc2c(Cl)c(O)ccc12` (centres unmarked) [Example 37, Methyl 2-[acetyl(1-phenylethyl)amino]-7-chloro-6-hydroxy-1-benzothiophene-3-carboxylate] registered a melting point of 195 to 200 °C. In series [1], this compound returned a CC50 at 48 h of 24.5 ± 2.2 µg/mL (≈ 60.7 µM).
The corresponding values for `COC(=O)c1c(N(Cc2ccccc2Cl)C(C)=O)sc2c(CN(C)C)c(O)ccc12` [Example 51] are 132 to 136 °C and > 300 µg/mL.
In the case of `COC(=O)c1c(N(Cc2cccc3ccccc23)C(C)=O)sc2cc(O)ccc12` [Example 32, Methyl 2-[acetyl(1-naphthylmethyl)amino]-6-hydroxy-1-benzothiophene-3-carboxylate], the melting point was in the range of 198 to 202 °C. Further, in series [1], the CC50 at 48 h is > 300 µg/mL.
For the compound `COC(=O)c1c(N(Cc2ccc(C(F)(F)F)cc2)C(C)=O)sc2cc(O)ccc12` [Example 22, Methyl 2-[acetyl(4-trifluoromethylbenzyl)amino]-6-hydroxy-1-benzothiophene-3-carboxylate], the melting point lay in the range of 171 to 175 °C. Also, the cytotoxic concentration (CC50) at 48 h in series [1] is 3.2 ± 0.8 µg/mL (≈ 7.56 µM).
`CCOC(=O)c1c(N(Cc2ccc(Cl)cc2)C(C)=O)sc2cc(O)ccc12` came in with a melting point of 172 to 176 °C.
Consider `CC(=O)N(Cc1ccccc1)c1sc2cc(O)ccc2c1C(N)=O` [Example 81, 2-[acetyl(benzyl)amino]-6-hydroxy-1-benzothiophene-3-carboxamide], for which the melting point was 110 to 115 °C. This compound also yielded a CC50 at 48 h in series [1] of 251 ± 19 µg/mL (≈ 737 µM).
`COC(=O)c1c(N(Cc2ccc(C(F)(F)F)cc2)C(C)=O)sc2c(Cl)c(O)ccc12` [Example 21, Methyl 2-[acetyl(4-trifluoromethylbenzyl)amino]-7-chloro-6-hydroxy-1-benzothiophene-3-carboxylate]: the melting point was in the range of 176 to 180 °C. The same compound came in with a CC50 at 48 h in series [1] of 5.6 ± 0.2 µg/mL (≈ 12.2 µM).
Compound `CC(=O)N(Cc1ccccc1)c1sc2cc(O)ccc2c1C(=O)OC(C)(C)C` showed a melting point of 185 to 190 °C.
Still for that read-out and setting: as for `CC(=O)N(Cc1ccc(F)cc1)c1sc2c(Cl)c(O)ccc2c1C(=O)O`, the figure is 220 to 224 °C.
Same read-out and setting: with `CCOC(=O)c1c(N(Cc2ccc(Cl)cc2)C(C)=O)sc2c(Cl)c(O)ccc12` the figure was 174 to 176 °C; with `COC(=O)c1c(N(Cc2ccccc2C(F)(F)F)C(C)=O)sc2c(Cl)c(O)ccc12`, 182 to 186 °C.
The same measure, in the same setting: with `COC(=O)c1c(N(CCc2ccccc2F)C(C)=O)sc2c(Cl)c(O)ccc12` the figure was 172 to 174 °C.
As for `COC(=O)c1c(N(Cc2ccccc2C)C(C)=O)sc2c(Cl)c(O)ccc12`, the melting point fell in the range of 182 to 184 °C.
The same measure, in the same setting: as for `COC(=O)c1c(N(Cc2ccccc2C#N)C(C)=O)sc2c(Cl)c(O)ccc12`, the figure is 204 to 208 °C.
For `COC(=O)c1c(N(Cc2ccccc2)C(C)=O)sc2c(Cl)c(O)ccc12` [Example 3, Methyl 2-[acetyl(benzyl)amino]-7-chloro-6-hydroxy-1-benzothiophene-3-carboxylate], in series [1], it took 4.5 ± 0.3 µg/mL (≈ 11.5 µM) to reach half-maximal cytotoxicity (CC50 at 48 h).
Compound `CCOC(=O)c1c(N(Cc2ccccc2Cl)C(C)=O)sc2cc(O)ccc12` displayed a melting point of 176 to 180 °C.
The same measure, in the same setting: with `COC(=O)c1c(N(Cc2ccccc2C#N)C(C)=O)sc2cc(O)ccc12` the figure was 168 to 172 °C; with `COC(=O)c1c(N(Cc2ccc(F)cc2)C(C)=O)sc2c(CN(C)C)c(O)ccc12`, 145 to 149 °C; with `CNC(=O)c1c(N(Cc2ccccc2)C(C)=O)sc2c(CN(C)C)c(O)ccc12`, 145 to 147 °C.
Still for that read-out and setting: with `COC(=O)c1c(N(Cc2ccc3ccccc3c2)C(C)=O)sc2cc(O)ccc12` the figure was 200 to 202 °C; with `COC(=O)c1c(N(Cc2ccc(C)cc2)C(C)=O)sc2c(Cl)c(O)ccc12`, 195 to 197 °C; with `COC(=O)c1c(N(CCc2ccccc2F)C(C)=O)sc2cc(O)ccc12`, 183 to 185 °C.
The same measure, in the same setting: as for `COC(=O)c1c(N(Cc2ccccc2C)C(C)=O)sc2cc(O)ccc12`, the figure is 164 to 168 °C.
As for `CC(=O)N(Cc1ccccc1)c1sc2cc(O)ccc2c1C#N` [Example 47, N-benzyl-N-(3-cyano-6-hydroxy-1-benzothiophene-2-yl)acetamide], in series [1], the CC50 at 48 h was 16.8 ± 1.5 µg/mL (≈ 52.1 µM).
`COC(=O)c1c(N(Cc2cccc(F)c2)C(C)=O)sc2cc(O)ccc12` had a melting point of 145 to 150 °C.
For `CC(=O)N(Cc1ccccc1F)c1sc2c(Cl)c(O)ccc2c1C(=O)O`, the melting point was in the range of 230 to 234 °C.

In general, melting point refers to the temperature of the solid-liquid transition. As usually defined, the CC50 is the concentration at which the toxic effect on the cells reaches its halfway point. High values mean lower toxicity to the cells, low ones greater toxicity to the cells.
